Laboratory results reported in PubChem BioAssay (NCI).
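Interpolation was linear, between the two tested concentrations surrounding the appropriate level; five concentrations were tested over 48 hours in 96-well plates. Abbreviation: GI50, concentration required for 50% inhibition of growth. TGI: total growth inhibition.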

Columns and labels:
Assay in all cases: DTP human tumour cell line panel, 48 h
OVCAR-8 ovarian = test system: OVCAR-8 ovarian
HT29 colon = test system: HT29 colon
SF-539 CNS = test system: SF-539 CNS
786-0 renal = test system: 786-0 renal
MCF7 breast = test system: MCF7 breast
SW-620 colon = test system: SW-620 colon
SNB-19 CNS = test system: SNB-19 CNS
BT-549 breast = test system: BT-549 breast
K-562 leukemia = test system: K-562 leukemia

Row | Structure (SMILES) | TGI (OVCAR-8 ovarian) [µM] | TGI (HT29 colon) [µM] | TGI (SF-539 CNS) [µM] | TGI (786-0 renal) [µM] | TGI (MCF7 breast) [µM] | TGI (SW-620 colon) [µM] | TGI (SNB-19 CNS) [µM] | TGI (BT-549 breast) [µM] | TGI (K-562 leukemia) [µM] | GI50 (OVCAR-8 ovarian) [µM] | GI50 (HT29 colon) [µM] | GI50 (SF-539 CNS) [µM] | GI50 (MCF7 breast) [µM] | GI50 (SW-620 colon) [µM] | GI50 (SNB-19 CNS) [µM] | GI50 (BT-549 breast) [µM] | GI50 (K-562 leukemia) [µM]
1 | O=C1/C(=C/c2ccc(O)cc2)CCc2ccccc21 | 73.5 | 45 | 38.4 | 39.1 | 82.4 | 40.1 | 50.7 | 41.4 | 81.3 | – | – | – | – | – | – | – | –
2 | C[C@]12CCC(=O)C=C1CC[C@@H]1[C@@H]2CC[C@]2(C)C(=O)/C(=C\c3ccccc3)C[C@@H]12 | > 100 | > 100 | > 63.6 | > 66.8 | > 56.1 | > 56.9 | > 100 | 72.6 | > 100 | – | – | – | – | – | – | – | –
3 | COC(=O)c1cc(/C=C2\Cc3cc4c(cc3C2=O)CCC4)cc2c1CCC2 | > 100 | > 100 | > 100 | > 100 | > 100 | > 100 | > 100 | > 100 | > 100 | – | – | – | – | – | – | – | –
4 | COc1cc(C2SC(N)=Nc3c2c(C)nn3C(=O)Cc2ccccc2)ccc1O (stereo unspecified) | > 100 | > 100 | > 100 | > 100 | > 100 | > 100 | > 100 | > 100 | > 100 | – | – | – | – | – | – | – | –
5 | O=C(Nc1ccc(F)cc1)c1cc2ccc(O)cc2oc1=Nc1cccc(F)c1 | 41.6 | > 100 | > 100 | > 100 | > 100 | > 100 | – | 75.4 | > 100 | – | – | – | – | – | – | – | –
6 | c1ccc(-c2cc(-c3cc(-c4ccccc4)no3)on2)cc1 | 30.2 | > 100 | 33.4 | > 100 | > 100 | > 100 | > 100 | > 100 | 49 | – | – | – | – | – | – | – | –
7 | Cc1nn(C(=O)c2ccncc2)c2c1C(c1ccccc1O)SC(N)=N2 (stereo unspecified) | > 10 | > 10 | > 10 | > 10 | > 10 | > 10 | > 10 | > 10 | > 10 | – | – | – | – | – | – | – | –
8 | O=C1C=Cc2c(I)sc(I)c21 | 42.3 | 68.4 | 57.2 | 22.8 | 52.1 | 38.1 | – | 41.5 | 56.8 | – | – | – | – | – | – | – | –
9 | Cc1ccc(C(=O)Nc2ccc(CP(=O)(O)O)cc2)cc1NC(=O)Nc1cc(C(=O)Nc2ccc(CP(=O)(O)O)cc2)ccc1C | > 100 | > 100 | > 100 | > 100 | > 100 | > 100 | – | > 100 | – | – | – | – | – | – | – | – | –
10 | Clc1ccc(N=Cc2cc3cc(Br)ccc3nc2Cl)cc1 | > 50 | > 50 | > 50 | > 50 | – | > 50 | – | > 50 | > 50 | – | – | – | – | – | – | – | –
11 | CCC1CCN=C(Cn2cc(C)c(=O)[nH]c2=O)N1 (stereo unspecified) | > 100 | > 100 | – | > 100 | > 100 | > 100 | > 100 | > 100 | – | – | – | – | – | – | – | – | –
12 | Cc1c(C)c(C)c(CSC(=N)N)c(C)c1C | 58.2 | 25.6 | 29.1 | 32.9 | 30.9 | 29 | 27.9 | 30.7 | 30.2 | – | – | – | – | – | – | – | –
13 | N=C(N)c1ccc(-c2ccc(-c3ccc(C(=N)N)cc3)o2)cc1 | > 100 | > 100 | > 100 | 59.7 | > 100 | > 100 | > 100 | > 100 | > 100 | – | – | – | – | – | – | – | –
14 | Clc1ccc(CSCc2ccc(Cl)cc2Cl)c(Cl)c1 | > 100 | > 100 | > 100 | > 100 | 86.9 | > 100 | > 100 | > 100 | > 100 | – | – | – | – | – | – | – | –
15 | CCNC(=O)Cc1nc2c(=O)[nH]cnc2n1C1OC(CO)C(O)C1O (stereo unspecified) | > 100 | > 100 | > 100 | > 100 | > 100 | > 100 | > 100 | > 100 | > 100 | – | – | – | – | – | – | – | –
16 | N#CC(C#N)=Cc1ccc(-c2ccc(-c3nc4ccccc4s3)cc2)s1 | 72.2 | > 100 | 36.3 | – | > 100 | > 100 | > 100 | 85.2 | 57.4 | 23.1 | 29.7 | 18.3 | 26.2 | 19.8 | 30 | 31.1 | 17.8
17 | CC(C)[C@H](NC(=O)[C@@H](O)[C@H](N)Cc1ccccc1)C(=O)N[C@@H](Cc1ccccc1)C(=O)O | > 100 | – | – | > 100 | > 100 | > 100 | > 100 | – | > 100 | – | – | – | – | – | – | – | –
18 | CCC(C)(C)c1ccc(Oc2cccc(C(=O)O)c2)cc1 | > 100 | > 100 | > 100 | > 100 | > 100 | > 100 | > 100 | > 100 | > 100 | – | – | – | – | – | – | – | –
19 | Oc1ccc2c3c1OC1c4[nH]c5c(c4CC4(O)C(C2)N(CC2CC2)CC[C@]314)CC1(O)C2Cc3ccc(O)c4c3[C@@]1(CCN2CC1CC1)C5O4 (stereo partly specified) | > 100 | 38.3 | – | 46 | > 100 | 53.8 | 64 | > 100 | 63.9 | – | – | – | – | – | – | – | –
20 | CC1CC(=O)NC2CC1C2(C)C (stereo unspecified) | > 100 | > 100 | – | > 100 | > 100 | > 100 | > 100 | > 100 | > 100 | – | – | – | – | – | – | – | –
21 | Cc1ccc(S(=O)(=O)N/N=C2/CC[C@H](C(C)(C)C)C[C@@H]2C)cc1 | 29.9 | 30.7 | 32.5 | 31.8 | 32.8 | 50.7 | 32.6 | 29.8 | 42.1 | – | – | – | – | – | – | – | –
22 | CCOC(=O)c1cc(C2(OC)CCN(Cc3ccccc3)C2=O)c(-c2cc(C)no2)[nH]1 (stereo unspecified) | > 100 | > 100 | – | > 100 | > 100 | > 100 | > 100 | > 100 | > 100 | – | – | – | – | – | – | – | –
